Results published in US9597280B2, “Cosmetic compositions comprising microalgal oil” (TerraVia Holdings, Inc., priority 2013, dated 2017).

Experiments:
[1] = test system: MatTek's EpiDerm tissue; experiment: Thymine dimer formation in EpiDerm skin tissue model after UVB exposure; format: cell-based, human; settings: positive control, topical 24 hours after UVB 300 mJ/cm2; mean ± standard deviation; significantly different from Untreated (p < 0.05)
Experimental: Oil was extracted from heterotrophic ally cultivated Chlorella protothecoides followed by refining, bleaching and deodorization. The oil was tested for its ability to prevent thymine dimerization in a skin tissue model upon exposure to UVB (ultraviolet light of the B type). The testing system used for this assay was MatTek's EpiDerm tissue, a skin model that consists of normal human-derived epidermal keratinocytes cultured to form a multilayered, highly differentiated model of the human epidermis. For this study, the tissues were exposed to UVB (300 mJ/cm2) and then treated topically for 24 hours with the test material. Following the treatment the DNA was extracted from the EpiDerm tissues and assayed for thymine dimer content. […] The primary antibody was then detected using a secondary antibody conjugated to a fluorescent dye. […] With this method, the fluorescence intensity of each sample is proportional to the amount of the thymine dimers present in the sample. […] UVB lamp intensity was measured using a UVX radiometer with a probe specific for UVB (detects 260-360 nm, max absorbance at 310 nm, calibrated at 310 nm) to determine exposure times required for the appropriate UVB dose. […] Extracted DNA was quantified via a fluorometric assay. […]

[2] = test system: MatTek's EpiDerm tissue; experiment: MTT (viability) assay in EpiDerm skin tissue model after UVB exposure; format: cell-based, human; settings: positive control, topical 24 hours after UVB 300 mJ/cm2; mean ± standard deviation; significantly different from Untreated (p < 0.05)
From the text: Oil was extracted from heterotrophically cultivated Chlorella protothecoides followed by refining, bleaching and deodorization. A skin tissue model was used to evaluate changes in tissue viability after exposure to UVB radiation. The testing system used for this assay was MatTek's EpiDerm tissue, a skin model that consists of normal human-derived epidermal keratinocytes cultured to form a multilayered, highly differentiated model of the human epidermis. For this study, the tissues were exposed to UVB (300 mJ/cm2) and then treated topically for 24 hours with the test material. Following the treatment tissue changes in tissue viability were determined using an MTT assay. […] Reduction of MTT by mitochondria in viable cells results in the formation of insoluble purple formazin crystals that are extracted from the cells with isopropanol and quantified spectrophotometrically. […] UVB lamp intensity was measured using a UVX radiometer with a probe specific for UVB (detects 260-360 nm, max absorbance at 310 nm, calibrated at 310 nm) to determine exposure times required for the appropriate UVB dose. […] After the extraction, a 200 μl sample of the isopropanol/MTT mixture was transferred to a 96-well plate and the absorbance of the sample was read at 540 nm with a plate reader using 200 μl of isopropanol as the blank. […] Values are expressed as means±standard deviation.

Q: Which “Thymine Dimer Formation, Corrected RFU” value [1] does the source give for Cc1c(C)c2c(c(C)c1O)CCC(C)(C(=O)O)O2 (centres unmarked) [Trolox, 6-hydroxy-2,5,7,8-tetramethylchroman-2-carboxylic acid] here?
A: 5198 ± 513 RFU

Q: What about the “Viability (Percent of Non-UVB Exposed)” value [2] of the same molecule?
A: 100 ± 1.3% of Non-UVB Exposed
